Common to all, as to type: in vivo
Test [1] relates to Nilaparvata lugens. The test can be described thus: Activity against Nilaparvata lugens (systemic), rice plants in pots. The conditions noted are these: 144 h, 10 ppm of active ingredient in aqueous emulsion solution, larvae in the 2nd and 3rd stages, after 6 days, isomer ratios A, B and C used, read-out: percentage reduction in population (% activity). An excerpt:
The active ingredient is used, in each case, in three different isomer ratios A, B and C: A = 37.8 % of 2R,4S-isomer IIIa, 37.8% of 2S,4R-isomer IIIb, 12.2% of 2R,4R-isomer IIIc and 12.2% of 2S,4S-isomer IIId; B = 40.2% of 2R,4S-isomer IIIa, 40.2% of 2S,4R-isomer IIIb, 9.8% of 2R,4R-isomer IIIc and 9.8% of 2S,4S-isomer IIId; and C = 36.7% of 2R,4S-isomer IIIa, 36.7% of 2S,4R-isomer IIIb, 13.3% of 2R,4R-isomer IIIc and 13.3% of 2S,4S-isomer IIId. Example B6: Activity against Nilaparvata lugens (systemic) Pots containing rice plants are placed into an aqueous emulsion solution comprising 10 ppm of active ingredient. The plants are subsequently populated with larvae in the 2nd and 3rd stages. The test is evaluated after 6 days. The percentage reduction in population (% activity) is determined by comparing the number of plant hoppers on the treated and untreated plants. In this test, the compound of the formula III has an activity of over 80%.

The test system of test [2] is Adoxophyes reticulana eggs. Briefly: Activity against Adoxophyes reticulana (ovicidal), egg immersion test. The note with it: 144 h; 400 ppm of active ingredient in acetone/water; eggs on filter paper immersed; after 6 days; vs untreated control; isomer ratios A, B and C used; read-out: activity (% reduction in hatching rate). The source says:
(§1) The active ingredient is used, in each case, in three different isomer ratios A, B and C: A = 37.8 % of 2R,4S-isomer IIIa, 37.8% of 2S,4R-isomer IIIb, 12.2% of 2R,4R-isomer IIIc and 12.2% of 2S,4S-isomer IIId; B = 40.2% of 2R,4S-isomer IIIa, 40.2% of 2S,4R-isomer IIIb, 9.8% of 2R,4R-isomer IIIc and 9.8% of 2S,4S-isomer IIId; and C = 36.7% of 2R,4S-isomer IIIa, 36.7% of 2S,4R-isomer IIIb, 13.3% of 2R,4R-isomer IIIc and 13.3% of 2S,4S-isomer IIId. Example B1: Activity against Adoxophyes reticulana (ovicidal) Adoxophyes reticulana eggs which have been deposited on filter paper are briefly immersed into a test solution of 400 ppm of active ingredient in acetone/water. After the test solution has dried on, the eggs are incubated in Petri dishes. After 6 days, the percentage hatching rate of the eggs is evaluated by comparison with untreated control batches (% reduction in hatching rate). In this test, the compound of the formula III has an activity of over 80%.

The next test concerns Cydia pomonella eggs. The test can be described thus: Activity against Cydia pomonella (ovicidal), egg immersion test. The conditions noted are these: 144 h, 400 ppm of active ingredient in acetone/water, eggs on filter paper immersed, after 6 days, vs untreated control, isomer ratios A, B and C used, read-out: activity (% reduction in hatching rate).
Description: as §1, with “B4:” for “B1:”, “Cydia pomonella” for “Adoxophyes reticulana”

Test [3] concerns Aonidiella aurantii crawlers. The test can be described thus: Activity against Aonidiella aurantii on Citrus trifoliata cuttings (spray). The note with it: 50 ppm of active ingredient; Citrus trifoliata cuttings sprayed to drip point; after 10 to 12 weeks; isomer ratios A, B and C used. The source says: (§2) The active ingredient is used, in each case, in three different isomer ratios A, B and C: A = 37.8 % of 2R,4S-isomer IIIa, 37.8% of 2S,4R-isomer IIIb, 12.2% of 2R,4R-isomer IIIc and 12.2% of 2S,4S-isomer IIId; B = 40.2% of 2R,4S-isomer IIIa, 40.2% of 2S,4R-isomer IIIb, 9.8% of 2R,4R-isomer IIIc and 9.8% of 2S,4S-isomer IIId; and C = 36.7% of 2R,4S-isomer IIIa, 36.7% of 2S,4R-isomer IIIb, 13.3% of 2R,4R-isomer IIIc and 13.3% of 2S,4S-isomer IIId. Example B3: Activity against Aonidiella aurantii Citrus trifoliata cuttings are populated with Aonidiella aurantii crawlers. After about 2 weeks, the cuttings are sprayed to drip point with an aqueous emulsion spray mixture comprising 50 ppm of active ingredient. To evaluate the experiment after 10 to 12 weeks, the survival rate of the crawlers of the first subsequent generation of the treated population is compared with that of untreated control batches. In this test, the compound of the formula III has an activity of over 80%.

Test [4] relates to Aonidiella aurantii crawlers. The test can be described thus: Activity against Aonidiella aurantii on potato tubers (immersion). The note with it: 400 ppm of active ingredient; potato tubers immersed in aqueous emulsion or suspension spray mixture; after 10 to 12 weeks; isomer ratios A, B and C used.
Description: as §2, with “B2:” for “B3:”, “Potato tubers” for “Citrus trifoliata cuttings”, “potatoes” for “cuttings”, “immersed into” for “sprayed to drip point with”, “or suspension spray mixture which comprises 400” for “comprising 50”, “ingredient. After the tubers have dried, they are incubated in a plastic container.” for “ingredient.”

For test [5], the system named is Nilaparvata lugens. Briefly: Activity against Nilaparvata lugens on sprayed rice plants. The conditions noted are these: 504 h, 400 ppm of active ingredient, larvae in the 2nd and 3rd stages, after 21 days, isomer ratios A, B and C used, read-out: percentage reduction in population (% activity). An excerpt:
The active ingredient is used, in each case, in three different isomer ratios A, B and C: A = 37.8 % of 2R,4S-isomer IIIa, 37.8% of 2S,4R-isomer IIIb, 12.2% of 2R,4R-isomer IIIc and 12.2% of 2S,4S-isomer IIId; B = 40.2% of 2R,4S-isomer IIIa, 40.2% of 2S,4R-isomer IIIb, 9.8% of 2R,4R-isomer IIIc and 9.8% of 2S,4S-isomer IIId; and C = 36.7% of 2R,4S-isomer IIIa, 36.7% of 2S,4R-isomer IIIb, 13.3% of 2R,4R-isomer IIIc and 13.3% of 2S,4S-isomer IIId. Example B5: Activity against Nilaparvata lugens Rice plants are sprayed with an aqueous emulsion spray mixture comprising 400 ppm of active ingredient. After the spray coating has dried on, the plants are populated with plant hopper larvae in the 2nd and 3rd stages. The test is evaluated after 21 days. The percentage reduction in population (% activity) is determined by comparing the number of surviving plant hoppers on the treated and untreated plants. In this test, the compound of the formula III has an activity of over 80%.

Structures are written as SMILES.

From EP0643053A1, “Process for the manufacture of phenoxyphenoxyalkyl derivatives” (CIBA-GEIGY AG, priority 1993, dated 1995) come the findings set out here.

Consider `CCC1OCC(COc2ccc(Oc3ccccc3)cc2)O1` (racemic) [compound of the formula III, 2-ethyl-4-(4-phenoxyphenoxymethyl)-1,3-dioxolane], for which the activity at 10 ppm in the test with Nilaparvata lugens [1] was above 80%. Further, the activity at 400 ppm (in test [2]; with Cydia pomonella eggs; in the test on Nilaparvata lugens [5]) was above 80% throughout. The “activity (survival rate of the crawlers of the first subsequent generation compared with untreated control)” value in test [3] and in test [4] was “over 80%” throughout.
